Assays:
Assay type in all cases: in vivo
[1] = system: soybean (Glycine max); test: Test E preemergence; settings: scale 0 to 100
Outline: (§1)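 Preemergence: seeds in silt loam treated with compound in non-phytotoxic solvent with surfactant. Postemergence: plants at 1- to 4-leaf stage (2–18 cm) in peat-based medium sprayed likewise. Greenhouse 14–21 days, then visual rating vs controls, 0 (no effect) to 100 (complete control).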

[2] = system: corn (Zea mays); test: Test E preemergence; settings: scale 0 to 100
Outline: as §1

[3] = system: sandbur (southern sandbur, Cenchrus echinatus); test: Test E preemergence; settings: scale 0 to 100
Outline: as §1

[4] = system: velvetleaf (Abutilon theophrasti); test: Test A preemergence; settings: for Velvetleaf plant response rating: 0 to 100 scale (0 no effect, 100 complete control); for Plant response rating, Velvetleaf: 0 to 100 scale
Outline: (§2)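 Visual 0–100 rating (100 = complete control) taken about 10 d post-treatment relative to untreated checks. Preemergence: directed soil spray on sown loam/sand pots. Postemergence: seedlings 2–10 cm, 1–2 leaf. Non-phytotoxic solvent formulation with surfactant.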

[5] = system: corn (Zea mays); test: Test A preemergence; settings: 0 to 100 scale
Outline: as §2

[6] = system: morningglory (Ipomoea spp.); test: Test A preemergence; settings: for Morningglory plant response rating: 0 to 100 scale (0 no effect, 100 complete control); for Plant response rating, Morningglory: 0 to 100 scale
Outline: as §2

[7] = system: wheat (Triticum aestivum); test: Test A preemergence; settings: for Wheat plant response rating: 0 to 100 scale (0 no effect, 100 complete control); for Plant response rating, Wheat: 0 to 100 scale
Outline: as §2

[8] = system: large (Lg) crabgrass (Digitaria sanguinalis); test: Test A preemergence; settings: for Crabgrass, Large plant response rating: 0 to 100 scale (0 no effect, 100 complete control); for Plant response rating, Crabgrass, Large: 0 to 100 scale
Outline: as §2

[9] = system: winter wheat (Triticum aestivum); test: Test D postemergence; settings: scale 0 to 100
Text: (§3) Seeds of plant species selected from bluegrass (annual bluegrass, Poa annua), blackgrass (Alopecurus myosuroides), canarygrass (Phalaris minor), chickweed (common chickweed, Stellaria media), cutleaf geranium (Geranium dissectum), galium (catchweed bedstraw, Galium aparine), downy bromegrass (Bromus tectorum), field poppy (Papaver rhoeas), field violet (Viola arvensis), green foxtail (Setaria viridis), deadnettle (henbit deadnettle, Lamium amplexicaule), Italian ryegrass (Lolium multiflorum), kochia (Kochia scoparia), lambsquarters (Chenopodium album), oilseed rape (Brassica napus), pigweed (Amaranthus retroflexus), chamomile (scentless chamomile, Matricaria inodora), Russian thistle (Salsola kali), speedwell (bird's-eye speedwell, Veronica persica), spring barley (Hordeum vulgare), spring wheat (Triticum aestivum), wild buckwheat (Polygonum convolvulus), wild mustard (Sinapis arvensis), wild oat (Avenafatua), wild radish (Raphanus raphanistrum), windgrass (Apera spica-venti), winter barley (Hordeum vulgare), and winter wheat (Triticum aestivum) were planted into a silt loam soil and treated preemergence with test chemicals formulated in a non-phytotoxic solvent mixture which included a surfactant.
(§4) At the same time, these species were planted in pots containing Redi-Earth® planting medium (Scotts Company, 14111 Scottslawn Road, Marysville, Ohio 43041) comprising spaghnum peat moss, vermiculite, wetting agent and starter nutrients and treated with postemergence applications of the test chemicals formulated in the same manner. Plants ranged in height from 2 to 18 cm (1- to 4-leaf stage). Treated plants and controls were maintained in a controlled growth environment for 14 to 21 days after which time all species were compared to controls and visually evaluated. Plant response ratings, summarized in Table D, are based on a scale of 0 to 100 where 0 is no effect and 100 is complete control. A dash (-) response means no test result.

[10] = system: galium (catchweed bedstraw, Galium aparine); test: Test D postemergence; settings: scale 0 to 100
Text: as §3, §4

[11] = system: field violet (Viola arvensis); test: Test D postemergence; settings: scale 0 to 100
Text: as §3, §4

| SMILES | Plant response rating, Soybean ([1]; 16 g ai/ha) | Plant response rating, Soybean ([1]; 31 g ai/ha) | Plant response rating, Soybean ([1]; 62 g ai/ha) | Plant response rating, Soybean ([1]; 125 g ai/ha) | Plant response rating, Corn ([2]; 16 g ai/ha) | Plant response rating, Corn ([2]; 31 g ai/ha) | Plant response rating, Corn ([2]; 62 g ai/ha) | Plant response rating, Corn ([2]; 125 g ai/ha) | Plant response rating, Sandbur ([3]; 16 g ai/ha) | Plant response rating, Sandbur ([3]; 31 g ai/ha) | Plant response rating, Sandbur ([3]; 62 g ai/ha) | Plant response rating, Sandbur ([3]; 125 g ai/ha) | Velvetleaf plant response rating ([4]; 125 g ai/ha) | Plant response rating, Velvetleaf ([4]; 500 g ai/ha) | Plant response rating, Corn ([5]; 125 g ai/ha) | Plant response rating, Corn ([5]; 500 g ai/ha) | Morningglory plant response rating ([6]; 125 g ai/ha) | Plant response rating, Morningglory ([6]; 500 g ai/ha) | Plant response rating, Wheat ([7]; 500 g ai/ha) | Plant response rating, Crabgrass, Large ([8]; 500 g ai/ha) | other results |
| --- | --- | --- | --- | --- | --- | --- | --- | --- | --- | --- | --- | --- | --- | --- | --- | --- | --- | --- | --- | --- | --- |
| Fc1cccc(Oc2ncc(Cl)cn2)c1Oc1ncc(Cl)cn1 [Compound 21, 2,2′-[[3-fluoro-1,2-phenylene]bis(oxy)]bis[5-chloropyrimidine]] | 0 | 25 | 65 | 90 | 0 | 0 | 10 | 50 | 0 | 0 | 15 | 50 | 80 | 90 | 40 | 60 | 90 | 100 | 60 | 100 | Wheat plant response rating ([7]; 125 g ai/ha): 60; Crabgrass, Large plant response rating ([8]; 125 g ai/ha): 100 |
| N#Cc1cccc(Oc2ncc(Cl)cn2)c1Oc1ncc(Cl)cn1 [Compound 3, 2,3-bis[(5-chloro-2-pyrimidinyl)oxy]benzonitrile] | – | – | – | – | – | – | – | – | – | – | – | – | – | 100 | 60 | 70 | – | 100 | 80 | 100 | Plant response rating, Wheat, Winter ([9]; 16 g ai/ha): 0; Plant response rating, Wheat, Winter ([9]; 31 g ai/ha): 10; Plant response rating, Wheat, Winter ([9]; 62 g ai/ha): 10; Plant response rating, Wheat, Winter ([9]; 125 g ai/ha): 15; Plant response rating, Galium ([10]; 16 g ai/ha): 75; Plant response rating, Galium ([10]; 31 g ai/ha): 95; Plant response rating, Galium ([10]; 62 g ai/ha): 100; Plant response rating, Galium ([10]; 125 g ai/ha): 100; Plant response rating, Field Violet ([11]; 16 g ai/ha): 90; Plant response rating, Field Violet ([11]; 31 g ai/ha): 100; Plant response rating, Field Violet ([11]; 62 g ai/ha): 100; Plant response rating, Field Violet ([11]; 125 g ai/ha): 100; Plant response rating, Velvetleaf ([4]; 125 g ai/ha): 100; Plant response rating, Morningglory ([6]; 125 g ai/ha): 100; Plant response rating, Wheat ([7]; 125 g ai/ha): 30; Plant response rating, Crabgrass, Large ([8]; 125 g ai/ha): 100 |
| Clc1cnc(Oc2cccc(Br)c2Oc2ncc(Cl)cn2)nc1 [Compound 19, 2,2′-[[3-bromo-1,2-phenylene]bis(oxy)]bis[5-chloropyrimidine]] | 0 | 0 | 0 | 50 | 0 | 0 | 20 | 50 | 0 | 0 | 0 | 20 | 80 | 90 | 10 | 60 | 70 | 100 | 70 | 100 | Wheat plant response rating ([7]; 125 g ai/ha): 40; Crabgrass, Large plant response rating ([8]; 125 g ai/ha): 100 |
